Results as given in publication PMC12040169 (PLOS Biology, 2025).

Assay: in vitro
Details: human, hela cells, % viability

| Compound | viability at 28.5 h, 10 µM [%] | viability at 28.5 h, 10 µM (bulk resorufin, single well) [%] |
| --- | --- | --- |
| CCCCOc1cccc(C(=O)Nc2ccc(-c3nc4ccccc4o3)c(O)c2)c1 [CBK263435] | 101 |  |
| O=C(Nc1ccc2oc(-c3cccnc3)nc2c1)c1ccc(Br)o1 [CBK263436] | 112 |  |
| Cc1cc2nc(-c3cc(NC(=O)/C=C/c4cccc([N+](=O)[O-])c4)ccc3O)oc2cc1C [CBK263438] | 94.1 |  |
| CCOc1cc(OCC)cc(C(=O)Nc2ccc(-c3nc4ncccc4o3)cc2)c1 [CBK263440] | 96.8 |  |
| O=C(NCCCN1CCOCC1)c1cc2cc([N+](=O)[O-])ccc2oc1=O [CBK263441] | 90.9 |  |
| O=C(COc1ccc([N+](=O)[O-])cc1)Nc1ccc2oc(-c3ccc(Br)cc3)nc2c1 [CBK263444] | 106 |  |
| COc1ccc2[nH]c(SCC(=O)Nc3ccc(Br)cc3)nc2c1 [CBK263447] | 91 |  |
| N=c1n(CCN2CCCC2)c2ccccc2n1CC(O)c1ccc(Cl)c(Cl)c1 (centres unmarked) [CBK263448C] | 83.6 |  |
| CC1CCCC(N2CCN(Cc3ccccn3)CC2)C1 (centres unmarked) [CBK263450] | 93 |  |
| O=C(Nc1ccc(-c2nnc(-c3ccco3)o2)cc1)C(c1ccccc1)c1ccccc1 [CBK263452] | 106 |  |
| Cc1no[n+]([O-])c1COc1cccc(/C=C2\N=C(c3ccccc3)OC2=O)c1 [CBK263454] | 96.3 |  |
| CCN(CC)CCn1c(=N)n(CC(=O)c2ccc(Cl)c(Cl)c2)c2ccccc21 [CBK263455B] | 91.5 |  |
| CC(C)C(=O)Nc1ccc(Oc2ccc(C(=O)O)c(C(=O)O)c2)cc1 [CBK263463] | 86.4 |  |
| COc1ccc(C(=O)Nc2ccccc2)cc1NC(=O)c1cc(C(F)(F)F)cc(C(F)(F)F)c1 [CBK263465] | 90 |  |
| COc1nnc(-c2ccc(C)cc2)c2ccccc12 [CBK263466] | 92 |  |
| COc1cc(C=C2C(=O)NC(=S)NC2=O)ccc1OCc1c(C)no[n+]1[O-] [CBK263467] |  | 95.8 |
| CC(C)(C)c1cc(N2C(=O)C(O)=C(C(=O)c3ccc(Cl)cc3)C2c2cccc([N+](=O)[O-])c2)no1 (centres unmarked) [CBK263470] | 92.8 |  |
| O=C(CN1C(=O)c2ccc([N+](=O)[O-])cc2C1=O)Nc1cc(Cl)ccc1C(=O)O [CBK263472] | 97.1 |  |
| CC1CCC(N2CCN(Cc3ccccn3)CC2)CC1 (centres unmarked) [CBK263473] | 90.6 |  |
| COc1ccc(OC)c(C(O)c2nc3ccccc3n2C(C)C)c1 (centres unmarked) [CBK263474] | 92.7 |  |
| COc1cc(C=C2C(=O)NC(=S)NC2=O)cc(Br)c1OCc1c(C)no[n+]1[O-] [CBK263475] |  | 98.9 |

| Compound | viability at 28.5 h, 10 µM [%] | viability at 28.5 h, 10 µM (bulk resorufin, single well) [%] |
| --- | --- | --- |
| COc1cc(CN2CCN(C(=O)c3cccc4ccccc34)CC2)cc(OC)c1O [CBK263477] | 103 |  |
| Cc1cc(-c2ccccc2)nn1C(CC(=O)O)C(=O)O (centres unmarked) [CBK263480] | 91.6 |  |
| N=c1n(CCN2CCCCC2)c2ccccc2n1CC(=O)c1cccc([N+](=O)[O-])c1 [CBK263481B] | 103 |  |
| CC1=NN(c2ccc(S(N)(=O)=O)cc2)C(=O)/C1=C\c1ccc(-c2cccc(C(=O)O)c2)o1 [CBK263483] | 98 |  |
| COc1ccccc1C(=O)N1CCN(Cc2cc(OC)c(O)c(OC)c2)CC1 [CBK263484] | 101 |  |
| COc1cc(/C=N/NC(=O)CCNc2n[nH]c(=O)[nH]c2=O)cc(Br)c1O [CBK263494] | 88.3 |  |
| O=C(O)C(Cc1ccccc1)N1C(=O)/C(=C/C=C/c2ccccc2)SC1=S (centres unmarked) [CBK263496] | 99.6 |  |
| Cc1ccc(C2=NN(C(=N)SC3CC(=O)N(c4ccc(C(=O)O)cc4)C3=O)C(c3ccc(Br)cc3)C2)cc1 (centres unmarked) [CBK263497] | 112 |  |
| CCOC(=O)c1c(C)n(-c2ccc(C)cc2)c2ccc(O)c(CN(C)C)c12 [CBK263499C] | 78.5 |  |
| O=C(Nc1ccc(S(=O)(=O)Nc2nccc(/C=C/c3ccc(Cl)cc3)n2)cc1)c1ccc(Br)cc1 [CBK263500] | 103 |  |
| COC(=O)c1c(NC(=S)Nc2ccccc2)sc(Cc2ccccc2)c1C [CBK263501] | 90.6 |  |
| COc1ccc(-n2c(C)c([N+](=O)[O-])c3ccc(O)c(CNCCCO)c32)cc1 [CBK263504C] | 88.4 |  |
| CN(C)CCNC(=O)NC(c1ccccc1)c1ccccc1 [CBK263505C] | 104 |  |
| Cc1cc(Br)c(NCC(=O)N/N=C/c2ccc(O)cc2)c(Br)c1 [CBK263506] | 101 |  |
| CC1(C)OC(=O)C(=CNC(CCC(=O)O)C(=O)O)C(=O)O1 (centres unmarked) [CBK263510] | 97.3 |  |
| O=C(NCCN1CCCC1=O)Nc1ccccc1 [CBK263517] | 116 |  |
| O=C(CCNc1n[nH]c(=O)[nH]c1=O)N/N=C/c1ccc(C(F)(F)F)cc1 [CBK263518] | 87.7 |  |
| O=C(CNC(=O)c1cccc(F)c1)N/N=C1/C(=O)N(Cc2ccc3c(c2)OCO3)c2ccccc21 [CBK263519] | 102 |  |
| O=C(NCCO)c1ccc(CSc2nc3sc4c(c3c(=O)[nH]2)CCCC4)cc1 [CBK263522] | 96.6 |  |
| O=C(O)C(Cc1ccccc1)N1C(=O)/C(=C/C(Cl)=C/c2ccc([N+](=O)[O-])cc2)SC1=S (centres unmarked) [CBK263523] | 95.4 |  |
| CC(/C=C1\SC(=S)N(C(Cc2ccccc2)C(=O)O)C1=O)=C\c1ccccc1 (centres unmarked) [CBK263524] | 91.7 |  |

| Compound | viability at 28.5 h, 10 µM [%] | viability at 28.5 h, 10 µM (bulk resorufin, single well) [%] |
| --- | --- | --- |
| O=C(Cc1n[nH]c(=O)[nH]c1=O)N/N=C/c1ccc(C(=O)O)cc1 [CBK263525] | 99.5 |  |
| O=C1C2CCCCC2C(=O)N1c1ccc(Oc2ccc(Br)cc2)cc1 (centres unmarked) [CBK263531] | 116 |  |
| COc1ccc(N2C(=O)c3ccc(C(=O)OCC(=O)c4ccc(-c5ccccc5)cc4)cc3C2=O)cc1 [CBK263532] | 95.8 |  |
| CCCc1c(C)nc2ccc(C)cc2c1SCC(=O)O [CBK263537] | 88.6 |  |
| O=C(NCCNc1ccc([N+](=O)[O-])cc1Cl)c1ccccc1Cl [CBK263541] | 112 |  |
| O=C(NCCCn1ccnc1)c1cc2c(ccc3ccccc32)oc1=O [CBK263543] | 86 |  |
| CCOc1ccc(N2C(=O)NC(=O)/C(=C/c3cn(CC(=O)Nc4ccccc4)c4ccccc34)C2=O)cc1 [CBK263544] |  | 90.2 |
| COc1ccc(C(CC(=O)O)CC(=O)O)cc1OC [CBK263545] | 91.9 |  |
| COc1ccc(N2C(=O)NC(=O)/C(=C/c3cn(CC(=O)Nc4ccccc4)c4ccccc34)C2=O)cc1 [CBK263547] |  | 110 |
| O=C(O)Cn1c(=O)n(CC(=O)O)c2ccccc21 [CBK263550] | 83 |  |
| O=[N+]([O-])c1ccccc1NCCNS(=O)(=O)c1ccccc1 [CBK263552] | 89 |  |
| CCc1c(C)nc2c(C)cccc2c1SCC(=O)O [CBK263554] | 87.6 |  |
| Cc1oc(C(=O)O)cc1CSC(C)C(=O)O (centres unmarked) [CBK263556] | 93.8 |  |
| O=C(NCC1CCCO1)C(=O)Nc1ccccc1F (centres unmarked) [CBK263557] | 90.5 |  |
| O=C(CSc1nnc(-c2ccc3c(c2)OCO3)n1-c1ccccc1)c1ccc(Cl)cc1 [CBK263559] | 100 |  |
| O=C(O)c1ccc(/C=N/N2CCN(Cc3ccc(Cl)cc3)CC2)cc1 [CBK263561] | 90.5 |  |
| CC(=O)Nc1ccc(S(=O)(=O)NCCSc2ccc(C)cc2)cc1 [CBK263563] | 111 |  |
| COc1ccc(/C=C/C(=O)O)cc1S(=O)(=O)N1CCCCCC1 [CBK263565] | 87.8 |  |
| O=C(O)CCCC(=O)Nc1ccc(O)cc1 [CBK263567] | 90.9 |  |
| O=C(O)c1ccc(/C=N/NC(=O)c2ccco2)cc1 [CBK263569] | 90.5 |  |
| Cc1cccc(N(CC(=O)NCc2ccco2)S(=O)(=O)c2ccccc2)c1 [CBK263571] | 87.7 |  |

| Compound | viability at 28.5 h, 10 µM [%] | viability at 28.5 h, 10 µM (bulk resorufin, single well) [%] |
| --- | --- | --- |
| C/C(=N\N1CCN(Cc2cccc3ccccc23)CC1)c1ccncc1 [CBK263574] | 98.9 |  |
| O=C(NC(=S)N1CCN(CCN2C(=O)c3cccc4cccc(c34)C2=O)CC1)c1ccc2c(c1)OCO2 [CBK263577] | 82.2 |  |
| CCc1cc(C)cc(OCCOc2ccccc2C=C2C(=O)NC(=S)NC2=O)c1 [CBK263579] |  | 120 |
| Cc1cccc(N(CC(O)CN2C(=O)NC(C)(C)C2=O)S(=O)(=O)c2ccccc2)c1 (centres unmarked) [CBK263582] | 103 |  |
| N=c1sc(Cc2cc(Cl)ccc2Cl)cn1CC(=O)c1ccccc1 [CBK263584B] | 89.6 |  |
| COc1ccc(N(CC(O)CN2CCOCC2)S(=O)(=O)c2ccccc2)cc1 (centres unmarked) [CBK263589] | 84.5 |  |
| Cc1ccc(C2(c3ccc(C)cc3)CC2C(=O)Nc2ccccc2[N+](=O)[O-])cc1 (centres unmarked) [CBK263591] | 93.3 |  |
| COc1ccc(C(=O)CSc2nnc(-c3ccc4c(c3)OCO4)n2-c2ccccc2)cc1 [CBK263592] | 80.7 |  |
| O=[N+]([O-])c1ccc(NCCNC(=S)Nc2ccc(Cl)cc2)nc1 [CBK263594] | 85.8 |  |
| Cc1ccc(OCC(=O)NCCCN(C)C)cc1 [CBK263595] | 98.3 |  |
| O=C1NC(=O)C(=Cc2ccccc2OS(=O)(=O)c2ccc3ccccc3c2)C(=O)N1 [CBK263599] |  | 64 |
| C/C(=N\NS(=O)(=O)c1ccc(C)cc1)C(C)(C)CC(=O)O [CBK263601] | 102 |  |
| N=C1NC(=O)/C(=C/c2ccc(OC(=O)c3cccc([N+](=O)[O-])c3)cc2)S1 [CBK263606] | 100 |  |
| COc1ccc(NC(=O)/C(=C\c2ccc3c(c2)OCO3)NC(=O)c2ccco2)cc1 [CBK263607] | 86.3 |  |
| O=C(Cc1ccccc1)Nc1ccc(Oc2ccc(C(=O)O)c(C(=O)O)c2)cc1 [CBK263611] | 90.3 |  |
| Cc1cc(C(=O)Nc2ccccc2C(=O)O)ccc1NC(=O)CC(C)C [CBK263616] | 101 |  |
| COc1ccc(CCNS(=O)(=O)c2cccc([N+](=O)[O-])c2)cc1OC [CBK263618] | 89.5 |  |
| Cc1cccc(NC2=NC(=O)/C(=C\c3ccc(Cl)cc3)S2)c1C [CBK263619] | 101 |  |
| CS(=O)(=O)N1CCN(Cc2cc(Br)ccc2O)CC1 [CBK263620G] | 93.9 |  |
| COc1ccc(OC(C)C(=O)Nc2ccc(C(=O)O)cc2)cc1 (centres unmarked) [CBK263622] | 101 |  |
